# Results taken from patent US11572362B2, “Pyrrolo[1,2-b]pyridazine derivatives” (Gilead Sciences, Inc., priority 2018, dated 2023).
# Experiments:
# [1] = tested on: TNFα; test: IRAK4 Monocyte TNFα Cell Based Assay; details: Monocyte; cryopreserved human monocytes, 50 pg/ml LPS, compound 1 hour pre-treatment, 4 hours stimulation, TNFα by TR-FRET
# Method in brief: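 Monocytes at 5,000 cells/well were pre-treated with compound for 1 h at 37 °C (0.1% DMSO final), then stimulated with 50 pg/ml LPS for 4 h. Secreted TNFα in supernatant was measured by TR-FRET (665/615 ratio), expressed as % control relative to unstimulated and stimulated cells.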
# [2] = target: IRAK4 (Homo sapiens (Human), UniProt Q9NWZ3); test: IRAK4 Biochemical Assay (TR-FRET/HTRF); details: IRAK4 enzyme 0.75 nM, 500 μM ATP, 2 μM STK1 peptide, 120 min
# Method in brief: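 Recombinant IRAK4 (0.75 nM) with 2 µM STK1 peptide and 500 µM ATP in pH 7.0 HEPES/Mg buffer; compound preincubated 15 min with enzyme and peptide, then 120 min reaction at room temperature. HTRF readout: cryptate anti-phospho-peptide antibody, 665/615 nm ratio; % inhibition against no-inhibitor and saturating-staurosporine controls.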
# Chain of IRAK4 (Q9NWZ3 whole entry): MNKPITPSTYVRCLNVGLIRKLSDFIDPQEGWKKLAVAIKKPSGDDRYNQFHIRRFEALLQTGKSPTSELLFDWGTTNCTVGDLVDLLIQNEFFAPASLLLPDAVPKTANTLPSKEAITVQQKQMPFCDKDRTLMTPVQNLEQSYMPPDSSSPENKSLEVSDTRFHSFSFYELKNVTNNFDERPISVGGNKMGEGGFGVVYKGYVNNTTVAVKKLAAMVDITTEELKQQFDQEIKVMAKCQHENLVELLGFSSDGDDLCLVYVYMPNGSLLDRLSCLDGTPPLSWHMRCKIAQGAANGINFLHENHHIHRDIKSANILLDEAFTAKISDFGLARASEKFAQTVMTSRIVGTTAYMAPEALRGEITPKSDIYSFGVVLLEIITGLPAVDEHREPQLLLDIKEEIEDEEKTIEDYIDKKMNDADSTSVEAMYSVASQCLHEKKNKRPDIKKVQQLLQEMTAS
compound,measurement,setting,value
"CC(C)(O)[C@H](F)CNC(=O)c1cnc(-c2ccc3cc(C#N)cnn23)cc1N[C@H]1CC[C@@H](c2cn[nH]c2)CC1 [Compound 2, 4-(((1s,4S)-4-(1H-pyrazol-4-yl)cyclohexyl)amino)-6-(3-cyanopyrrolo[1,2-b]pyridazin-7-yl)-N-((R)-2-fluoro-3-hydroxy-3-methylbutyl)nicotinamide]",EC50,[1],66 nM
same,IC50,[2],< 1 nM
